In the supplement of paper PMC10307832:

Key:
Test in all cases: relative viability (nuclei count vs DMSO), 5 days (fraction); higher = more cells survive
[1] = compound: C1CN(CCN1)C2=CC=C(C=C2)C3=CN4C(=C(C=N4)C5=CC=NC6=CC=CC=C56)N=C3 [DM3189] + Cc1cc(Nc2cc(N3CCN(C)CC3)nc(Sc3ccc(NC(=O)C4CC4)cc3)n2)n[nH]1 [Tozasertib] (partner 0.1 µM)
Outline: (§1)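 One day after seeding in 1536-well plates, lung cancer cell lines were dosed by pin tool. Dosing was either single-drug or a fixed anchor-drug dose plus five library-drug doses (not always all listed) in √10 steps. After 5 days, nuclei were stained in one fix-and-stain step and counted on 4× images, and relative viability is the nuclei count of treated wells over that of vehicle wells, given as the median of duplicate plates.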

[2] = compound: C1CN(CCN1)C2=CC=C(C=C2)C3=CN4C(=C(C=N4)C5=CC=NC6=CC=CC=C56)N=C3 [DM3189] + Cc1nc(NC(=O)N2CCC[C@H]2C(N)=O)sc1-c1ccnc(C(C)(C)C(F)(F)F)c1 [Alpelisib] (partner 2 µM)
Outline: as §1

[3] = compound: C1CN(CCN1)C2=CC=C(C=C2)C3=CN4C(=C(C=N4)C5=CC=NC6=CC=CC=C56)N=C3 [DM3189] + N=C(N)NC(=N)NCCc1ccccc1 [Phenformin] (partner 250 µM)
Outline: as §1

[4] = compound: C1CN(CCN1)C2=CC=C(C=C2)C3=CN4C(=C(C=N4)C5=CC=NC6=CC=CC=C56)N=C3 [DM3189] + O=C(CCCCCCC(=O)Nc1ccccc1)NO [Vorinostat] (partner 1 µM)
Outline: as §1

[5] = compound: C1CN(CCN1)C2=CC=C(C=C2)C3=CN4C(=C(C=N4)C5=CC=NC6=CC=CC=C56)N=C3 [DM3189] + CS(=O)(=O)N1CCN(Cc2cc3nc(-c4cccc5[nH]ncc45)nc(N4CCOCC4)c3s2)CC1 [Pictilisib] (partner 1 µM)
Outline: as §1

Cell Line | relative viability ([1]; first compound 0.08 µM) | relative viability ([1]; first compound 0.253 µM) | relative viability ([1]; first compound 0.8 µM) | relative viability ([1]; first compound 2.53 µM) | relative viability ([2]; first compound 0.08 µM) | relative viability ([2]; first compound 0.253 µM) | relative viability ([2]; first compound 0.8 µM) | relative viability ([2]; first compound 2.53 µM) | relative viability ([3]; first compound 0.08 µM) | relative viability ([3]; first compound 0.253 µM) | relative viability ([3]; first compound 0.8 µM) | relative viability ([3]; first compound 2.53 µM) | relative viability ([4]; first compound 0.08 µM) | relative viability ([4]; first compound 0.253 µM) | relative viability ([4]; first compound 0.8 µM) | relative viability ([4]; first compound 2.53 µM) | relative viability ([5]; first compound 0.08 µM) | relative viability ([5]; first compound 0.253 µM) | relative viability ([5]; first compound 0.8 µM) | relative viability ([5]; first compound 2.53 µM)
201T | 0.998 | 0.913 | 1.02 | 0.781 | 1.05 | 1.02 | 1 | 1.05 | 0.482 | 0.429 | 0.388 | 0.431 | 1.03 | 0.899 | 0.943 | 1.12 | 0.766 | 0.73 | 0.515 | 0.702
A-427 | 0.191 | 0.212 | 0.204 | 0.216 | 1.11 | 1.04 | 1.01 | 1.09 | 0.344 | 0.297 | 0.284 | 0.227 | 0.941 | 0.791 | 0.801 | 0.816 | 0.866 | 0.677 | 0.617 | 0.865
ABC-1 | 0.192 | 0.134 | 0.165 | 0.175 | 0.864 | 1.07 | 1.02 | 0.925 | 0.256 | 0.233 | 0.216 | 0.176 | 1.53 | 0.9 | 1.04 | 0.907 | 0.838 | 0.636 | 0.757 | 0.631
BEN | 0.416 | 0.465 | 0.483 | 0.444 | 0.917 | 1 | 1.03 | 0.934 | 0.237 | 0.312 | 0.268 | 0.287 | 0.609 | 0.547 | 0.541 | 0.636 | 0.553 | 0.601 | 0.617 | 0.581
CAL-12T | 0.318 | 0.234 | 0.327 | 0.403 | 1.42 | 1.14 | 1.41 | 1.43 | 0.588 | 0.571 | 0.526 | 0.703 | 0.683 | 0.785 | 0.878 | 0.743 | 0.43 | 0.321 | 0.575 | 0.544
COR-L23 | 0.19 | 0.196 | 0.147 | 0.187 | 0.749 | 0.634 | 0.645 | 0.636 | 0.472 | 0.439 | 0.402 | 0.408 | 0.454 | 0.537 | 0.387 | 0.37 | 0.71 | 0.668 | 0.485 | 0.627
COR-L 105 | 0.434 | 0.371 | 0.32 | 0.358 | 1.17 | 1.16 | 1.01 | 1.26 | 0.534 | 0.53 | 0.433 | 0.297 | 0.867 | 0.73 | 0.835 | 0.803 | 0.52 | 0.398 | 0.361 | 0.275
ChaGo-K-1 | 0.235 | 0.228 | 0.222 | 0.233 | – | – | – | – | 0.53 | 0.467 | 0.455 | 0.432 | 0.872 | 0.771 | 0.703 | 0.746 | 0.756 | 0.67 | 0.808 | 0.584
EKVX | 0.44 | 0.407 | 0.449 | 0.352 | 0.944 | 0.77 | 0.807 | 0.869 | 0.251 | 0.224 | 0.218 | 0.242 | 0.856 | 0.72 | 0.678 | 0.62 | 0.483 | 0.429 | 0.413 | 0.446
EMC-BAC-2 | 0.302 | 0.283 | 0.254 | 0.323 | 0.684 | 0.432 | 0.718 | 0.8 | 0.554 | 0.495 | 0.456 | 0.436 | 0.53 | 0.439 | 0.477 | 0.741 | 0.587 | 0.538 | 0.507 | 0.54
EPLC-272H | 0.418 | 0.252 | 0.235 | 0.253 | 0.876 | 1.1 | 0.916 | 0.838 | 0.284 | 0.293 | 0.25 | 0.276 | 0.386 | 0.517 | 0.247 | 0.402 | 0.322 | 0.347 | 0.276 | 0.27
H3255 | 0.271 | 0.604 | 0.715 | 0.762 | 0.834 | 0.739 | 0.681 | 0.847 | 0.305 | 0.422 | 0.338 | 0.376 | 1.11 | 0.826 | 0.845 | 0.89 | 0.585 | 0.511 | 0.446 | 0.529
HARA | 0.0946 | 0.0943 | 0.0953 | 0.0845 | 0.801 | 0.766 | 0.787 | 0.958 | 0.515 | 0.42 | 0.391 | 0.568 | 0.596 | 0.539 | 0.606 | 0.622 | 0.645 | 0.362 | 0.288 | 0.35
HCC-15 | 0.246 | 0.44 | 0.35 | 0.375 | 0.951 | 0.798 | 0.802 | 0.894 | 0.555 | 0.437 | 0.41 | 0.435 | 1.03 | 0.803 | 0.732 | 0.815 | 0.764 | 0.695 | 0.584 | 0.661
HCC-44 | 0.999 | 0.912 | 0.727 | 0.954 | 0.874 | 0.942 | 0.631 | 0.757 | 0.218 | 0.155 | 0.178 | 0.153 | 1.08 | 1.14 | 0.921 | 1.08 | 0.815 | 0.615 | 0.472 | 0.752
HCC-78 | 0.263 | 0.464 | 0.411 | 0.465 | 0.635 | 0.315 | – | 0.311 | 0.713 | 0.754 | 0.724 | 0.605 | 0.41 | 0.453 | 0.51 | 0.557 | 0.206 | 0.188 | – | 0.224
